In US20180186742A1, “PICOLINAMIDES AS FUNGICIDES” (Dow AgroSciences LLC, priority 2017, published 2018):
Like-named read-outs stand apart in the source and are kept apart here.

Key:
Puccinia triticina = experiment: Wheat brown rust (PUCCRT), disease control on wheat seedlings; type: in vivo; conditions: for pest or weed control at 121.5 g/ha: low volume application at 121.5 g/H; for pest or weed control at 100 ppm: high volume application at 100 ppm
Procedure: Technical grades of materials were dissolved in acetone, which were then mixed with nine volumes of water containing 110 ppm Triton X-100. The fungicide solutions were applied onto wheat seedlings using an automated booth sprayer to run-off. All sprayed plants were allowed to air dry prior to further handling. All fungicides were evaluated using the aforementioned method for their activity vs. all target diseases, unless stated otherwise. Wheat leaf blotch and brown rust activity were also evaluated using track spray applications, in which case the fungicides were formulated as EC formulations, containing 0.1% Trycol 5941 in the spray solutions. Wheat plants (variety Yuma) were grown from seed in a greenhouse in 50% mineral soil/50% soil-less Metro mix until the first leaf was fully emerged, with 7-10 seedlings per pot. These plants were inoculated with an aqueous spore suspension of Puccinia triticina either prior to or after fungicide treatments. After inoculation the plants were kept in a dark dew room at 22° C. with 100% relative humidity overnight to permit spores to germinate and infect the leaf. The plants were then transferred to a greenhouse set at 24° C. for disease to develop. Fungicide formulation, application and disease assessment followed the procedures as described in the Example A.

Zymoseptoria tritici = experiment: Leaf blotch of wheat (SEPTTR), disease control on wheat seedlings; type: in vivo; conditions: for pest or weed control at 121.5 g/ha: low volume application at 121.5 g/H; for pest or weed control at 100 ppm: high volume application at 100 ppm
Procedure: Technical grades of materials were dissolved in acetone, which were then mixed with nine volumes of water containing 110 ppm Triton X-100. The fungicide solutions were applied onto wheat seedlings using an automated booth sprayer to run-off. All sprayed plants were allowed to air dry prior to further handling. All fungicides were evaluated using the aforementioned method for their activity vs. all target diseases, unless stated otherwise. Wheat leaf blotch and brown rust activity were also evaluated using track spray applications, in which case the fungicides were formulated as EC formulations, containing 0.1% Trycol 5941 in the spray solutions. Wheat plants (variety Yuma) were grown from seed in a greenhouse in 50% mineral soil/50% soil-less Metro mix until the first leaf was fully emerged, with 7-10 seedlings per pot. These plants were inoculated with an aqueous spore suspension of Zymoseptoria tritici either prior to or after fungicide treatments. After inoculation the plants were kept in 100% relative humidity (one day in a dark dew chamber followed by two to three days in a lighted dew chamber at 20° C.) to permit spores to germinate and infect the leaf. The plants were then transferred to a greenhouse set at 20° C. for disease to develop. When disease symptoms were fully expressed on the 1st leaves of untreated plants, infection levels were assessed on a scale of 0 to 100 percent disease severity. Percent disease control was calculated using the ratio of disease severity on treated plants relative to untreated plants.

[1] = 24 h, 1 Day Protectant, read-out: PUCCRT disease control, 1DP, HV activity
[2] = 72 h, 3 Day Curative, read-out: PUCCRT disease control, 3DC, HV activity
[3] = 24 h, 1 Day Protectant, read-out: SEPTTR disease control, 1DP, HV activity
[4] = 72 h, 3 Day Curative, read-out: SEPTTR disease control, 3DC, HV activity
[5] = 24 h, 1 Day Protectant, read-out: PUCCRT disease control, 1DP, LV activity
[6] = 72 h, 3 Day Curative, read-out: PUCCRT disease control, 3DC, LV activity
[7] = 24 h, 1 Day Protectant, read-out: SEPTTR disease control, 1DP, LV activity
[8] = 72 h, 3 Day Curative, read-out: SEPTTR disease control, 3DC, LV activity

| Structure (SMILES) | pest or weed control at 100 ppm (Puccinia triticina; [1]) | pest or weed control at 100 ppm (Puccinia triticina; [2]) | pest or weed control at 100 ppm (Zymoseptoria tritici; [3]) | pest or weed control at 100 ppm (Zymoseptoria tritici; [4]) | also measured |
| --- | --- | --- | --- | --- | --- |
| COc1ccnc(C(=O)N[C@@H](C)C(=O)O[C@@H](C)[C@H](c2c(F)cccc2Cl)C(C)C)c1OC(C)=O [Compound 390] |  |  |  |  | pest or weed control at 121.5 g/ha (Puccinia triticina; 24 h, 1 Day Protectant, wheat brown rust, read-out: PUCCRT 1DP disease control, LV activity): > 80%; pest or weed control at 121.5 g/ha (Puccinia triticina; 72 h, 3 Day Curative, wheat brown rust, read-out: PUCCRT 3DC disease control, LV activity): > 80%; pest or weed control at 121.5 g/ha (Zymoseptoria tritici; 24 h, 1 Day Protectant, wheat leaf blotch, read-out: SEPTTR 1DP disease control, LV activity): > 80%; pest or weed control at 121.5 g/ha (Zymoseptoria tritici; 72 h, 3 Day Curative, wheat leaf blotch, read-out: SEPTTR 3DC disease control, LV activity): > 80% |
| COc1cc(F)ccc1[C@@H](C(C)C)[C@H](C)OC(=O)[C@H](C)NC(=O)c1nccc(OC)c1O [Compound 138] | > 80% | > 80% | < 0% | < 0% |  |
| COc1cc(C)ccc1[C@H](C(C)C)[C@H](C)OC(=O)[C@H](C)NC(=O)c1nccc(OC)c1OCOC(C)=O [Compound 259] |  |  |  |  | pest or weed control at 121.5 g/ha (Puccinia triticina; [5]): > 80%; pest or weed control at 121.5 g/ha (Puccinia triticina; [6]): > 80%; pest or weed control at 121.5 g/ha (Zymoseptoria tritici; [7]): < 80% |
| COc1ccc([C@H](C(C)C)[C@H](C)OC(=O)[C@H](C)NC(=O)c2nccc(OC)c2OC(C)=O)c(C)c1 [Compound 254] |  |  |  |  | pest or weed control at 121.5 g/ha (Puccinia triticina; [5]): > 80%; pest or weed control at 121.5 g/ha (Puccinia triticina; [6]): > 80%; pest or weed control at 121.5 g/ha (Zymoseptoria tritici; [7]): > 80% |
| CCC(C)[C@@H](c1ccc(F)cc1OC)[C@H](C)OC(=O)[C@H](C)NC(=O)c1nccc(OC)c1O (stereo partly shown) [Compound 146] | > 80% | > 80% | < 80% | > 80% |  |
| COc1ccnc(C(=O)N[C@@H](C)C(=O)O[C@H](C)[C@H](c2ccc(F)cc2C)C2CCCC2)c1O [Compound 128] | < 80% | < 0% | < 0% | < 80% |  |
| COc1ccnc(C(=O)N[C@@H](C)C(=O)O[C@@H](C)[C@@H](c2ccc(F)cc2F)C(C)C)c1O [Compound 331] | < 80% | < 80% | < 80% | < 80% |  |
| CCC(CC)[C@@H](c1ccccc1)C(C)OC(=O)[C@H](C)NC(=O)c1nccc(OC)c1O (stereo partly shown) [Compound 112] | > 80% | > 80% | > 80% | > 80% |  |
| COc1ccnc(C(=O)N[C@@H](C)C(=O)O[C@H](C)[C@H](c2ccc(F)cc2C)C(C)C)c1O [Compound 130] | > 80% | < 80% | < 80% | < 80% |  |
| COCCC(=O)Oc1c(OC)ccnc1C(=O)N[C@@H](C)C(=O)O[C@@H](C)[C@H](c1ccc(C)cc1OC)C(C)C [Compound 249] |  |  |  |  | pest or weed control at 121.5 g/ha (Puccinia triticina; [5]): > 80%; pest or weed control at 121.5 g/ha (Puccinia triticina; [6]): > 80%; pest or weed control at 121.5 g/ha (Zymoseptoria tritici; [7]): < 80% |
| COc1ccnc(C(=O)N[C@@H](C)C(=O)O[C@@H](C)[C@H](c2ccc(C)cc2)C(C)C)c1OC(C)=O [Compound 168] |  |  |  |  | pest or weed control at 121.5 g/ha (Puccinia triticina; [5]): > 80%; pest or weed control at 121.5 g/ha (Puccinia triticina; [6]): > 80%; pest or weed control at 121.5 g/ha (Zymoseptoria tritici; [7]): < 80%; pest or weed control at 121.5 g/ha (Zymoseptoria tritici; [8]): < 80% |
| CC[C@H](C)[C@H](NC(=O)c1nccc(OC)c1O)C(=O)O[C@@H](C)[C@H](c1ccc(F)cc1C)C(C)C [Compound 319] | < 80% | < 80% | < 80% | < 80% |  |
| COc1cc(F)ccc1[C@H](C1CCCC1)[C@H](C)OC(=O)[C@H](C)NC(=O)c1nccc(OC)c1O [Compound 144] | > 80% | > 80% | < 80% | > 80% |  |
| COc1ccnc(C(=O)N[C@@H](C)C(=O)O[C@@H](C)[C@H](c2ccc(OC(F)(F)F)cc2)C(C)C)c1O [Compound 335] | > 80% | > 80% | > 80% | < 80% |  |
| COc1ccc([C@H](C(C)C)[C@H](C)OC(=O)[C@H](C)NC(=O)c2nccc(OC)c2OCOC(C)=O)cc1F [Compound 258] |  |  |  |  | pest or weed control at 121.5 g/ha (Puccinia triticina; [5]): > 80%; pest or weed control at 121.5 g/ha (Puccinia triticina; [6]): < 80%; pest or weed control at 121.5 g/ha (Zymoseptoria tritici; [7]): < 80% |
| CCC(CC)[C@@H](c1ccccc1)C(C)OC(=O)[C@H](C)NC(=O)c1nccc(OC)c1OC(C)=O (stereo partly shown) [Compound 172] |  |  |  |  | pest or weed control at 121.5 g/ha (Puccinia triticina; [5]): > 80%; pest or weed control at 121.5 g/ha (Puccinia triticina; [6]): > 80%; pest or weed control at 121.5 g/ha (Zymoseptoria tritici; [7]): > 80%; pest or weed control at 121.5 g/ha (Zymoseptoria tritici; [8]): > 80% |
| COc1ccnc(C(=O)N[C@@H](C)C(=O)O[C@@H](C)[C@H](c2ccc(F)c(C)c2)C(C)C)c1OCOC(C)=O [Compound 256] |  |  |  |  | pest or weed control at 121.5 g/ha (Puccinia triticina; [5]): > 80%; pest or weed control at 121.5 g/ha (Puccinia triticina; [6]): > 80%; pest or weed control at 121.5 g/ha (Zymoseptoria tritici; [7]): > 80% |
| COc1ccnc(C(=O)N[C@@H](C)C(=O)O[C@@H](C)[C@H](c2ccc(F)cc2)C(C)C)c1O [Compound 135] | < 80% | > 80% | < 80% | > 80% |  |
| COc1cc(F)ccc1[C@@H](C1CCC1)[C@H](C)OC(=O)[C@H](C)NC(=O)c1nccc(OC)c1O [Compound 142] | > 80% | > 80% | < 0% | < 80% |  |
| COc1cc(F)ccc1[C@H](C1CCC1)[C@H](C)OC(=O)[C@H](C)NC(=O)c1nccc(OC)c1O [Compound 147] | > 80% | > 80% | < 0% | < 80% |  |
| COc1ccnc(C(=O)N[C@@H](C)C(=O)O[C@@H](C)[C@H](c2ccc(F)cc2F)C(C)C)c1O [Compound 328] | > 80% | > 80% | > 80% | > 80% |  |
| CCC(CC)[C@H](c1ccc(F)cc1C)[C@H](C)OC(=O)[C@H](C)NC(=O)c1nccc(OC)c1O [Compound 117] | > 80% | < 0% | > 80% | > 80% |  |
| COc1ccnc(C(=O)N[C@@H](C)C(=O)O[C@@H](C)[C@@H](c2ccc(C)cc2F)C(C)C)c1O [Compound 332] | < 80% | < 80% | < 80% | < 80% |  |
| COc1ccnc(C(=O)N[C@@H](C)C(=O)O[C@@H](C)[C@H](c2ccc(C)cc2C)C(C)C)c1O [Compound 325] | > 80% | > 80% | > 80% | < 80% |  |
| COc1ccnc(C(=O)N[C@@H](C)C(=O)O[C@@H](C)[C@H](c2ccccc2OC(C)C)C(C)C)c1O [Compound 337] | > 80% | > 80% | < 80% | < 0% |  |
| COc1ccnc(C(=O)N[C@@H](C)C(=O)O[C@@H](C)[C@@H](c2ccc(C)cc2C)C(C)C)c1O [Compound 131] | > 80% | > 80% | < 80% | < 80% |  |
| COc1ccnc(C(=O)N[C@@H](C)C(=O)O[C@@H](C)[C@@H](c2ccccc2)C(C)C)c1O [Compound 105] | > 80% | < 0% | < 80% | < 80% |  |
| COCCC(=O)Oc1c(OC)ccnc1C(=O)N[C@@H](C)C(=O)O[C@@H](C)[C@H](c1ccc(OC)cc1F)C(C)C [Compound 247] |  |  |  |  | pest or weed control at 121.5 g/ha (Puccinia triticina; [5]): > 80%; pest or weed control at 121.5 g/ha (Puccinia triticina; [6]): > 80%; pest or weed control at 121.5 g/ha (Zymoseptoria tritici; [7]): < 80% |
